What is called IC50 is the point on the concentration scale where inhibition reaches its midpoint. In general, GI50 refers to the concentration giving 50% growth inhibition.

One compound from US20230027854A1, “ISOXAZOLE DERIVATIVES TARGETING TACC3 AS ANTICANCER AGENTS” (A2A Pharmaceuticals, inc., priority 2019, published 2023) can be followed below.

Each structure is given as a SMILES string. Like-named read-outs stand apart in the source and are kept apart here.

Series [1] has as its system JIMT-1 cells. As to the kind of experiment: JIMT-1 cell growth inhibition / cell viability (SRB assay). It counts as cell-based. The settings on record: Homo sapiens. As for the experimental part: The ability of the compounds of the present disclosure to treat TACC3-mediated cancers, or associated symptoms or complications thereof, was determined using the following procedures. The compounds of the present disclosure were tested for their activity against cell death induction using a JIMT-1 cell line, which was a cell line having high level of TACC3. The concentration of each compound that was required for half-maximal inhibition of cell proliferation was calculated by a GraphPad Prism (GraphPad Software).
For orientation: The SRB assay estimates cell density from bound dye.

Series [2] deals with JIMT-1 cells. As to the kind of experiment: Colony formation assay. Type of series: cell-based, human. Conditions: 12 days. As for the experimental part:
For monolayer culture, single-cell suspensions of JIMT-1 cells (3×10^3 cells/well) were plated in a 12-well plate. […] In order to test the colony formation capacity of MCF-12A cells during TACC3 overexpression, MCF-12A cells (2×10^5) were seeded into 6-well plates and TACC3 trasnfection was performed next day. 48 h following transfection, cells were counted and 1×10^3 cells/well were plated into 12-well plates. For both experimental setups, the media were refreshed every 4 days, and cells were incubated for 12 days. Cells were then fixed with 2% paraformaldehyde for 15 min and stained with 1% crystal violet (Merck, Darmstadt, Germany) for 15 min at RT. Surviving colonies (composed of at least 50 cells) were counted with ImageJ software (NIH).

Series [3] has as its system JIMT-1 cells. In words: Annexin V/PI staining. The settings on record: 500 nM, 72 h; vehicle 4.1%. It counts as cell-based, human.
The subject of series [4] is NCI-60 human cell lines. As to the kind of experiment: NCI-60 five-dose screen. Type of series: cell-based. The procedure:
Detailed screening methodology can be accessed from https://dtp.cancer.gov/discovery_development/nci-60/methodology.htm webpage. Briefly, 24 h after cell seeding into 96-well plates, cells were treated with 5-log M concentration range of the compound for 2 days. Cytotoxicity was assessed using SRB assay. The data presented in the FIG.s are the average values of both experiments.

Series [5] concerns JIMT-1 xenografts. In words: JIMT-1 xenograft tumor growth in female nude mice. It counts as in vivo.
Series [6] deals with EMT6. Conditions: 25 mg/kg every day orally. The procedure:
Murine triple negative breast cancer (TNBC) cell line, EMT6, which is a fast-growing and highly aggressive model (Yang, Yang et al. 2017), was injected into MFPs of syngeneic Balb/c mice.
Six-to-eight-week-old female athymic nude or Balb/c mice were housed with a temperature-controlled and 12-hour light/12-hour dark cycle environment. This study was carried out in accordance with Institutional Animal Care and Use Committee of Bilkent University and performed according to the institution's guidelines and animal research principles. For in vivo breast cancer tumor growth in nude mice, 4×10^6 JIMT-1 cells were prepared in 150 μl of 1:1 DMEM and Matrigel (Corning, N.Y., USA), v/v) and injected into the mammary fat pads (MFP) of female nude mice. Mouse weight and tumor volume were measure daily using calipers. Tumor volumes were calculated as length×width^2×0.5. Once the tumor volume had reached about 90-100 mm^3, xenografts were randomized into groups. […] Mice were sacrificed 20-30 days after initiation of the treatments, and the tumors were collected and stored for subsequent analyses. […] 1×10^6 EMT-6 cells were prepared in PBS and injected into MFPs of mice. […] Survival was calculated using a predefined tumor volume cut-off of 1500 mm^3.

Series [7] in a line: Log D, octanol/sodium phosphate buffer. It counts as physicochemical. Conditions: octanol/sodium phosphate buffer (50 mM, pH 7.4); read-out: log D7.4.
Series [8] can be described thus: Kinetic solubility in sodium phosphate buffer. It counts as physicochemical. Conditions: pH 7.4, 25° C., 2 h.
The nature of series [9]: Stability in human liver microsomes. Type of series: in vitro ADME. Background: Microsomes from liver hold many membrane-bound enzymes, among them those of drug oxidation.
The nature of series [10]: Stability in mouse liver microsomes. It counts as in vitro ADME.
The target in series [11] is CYP2C9 (Homo sapiens, UniProt P11712). The settings on record: read-out: IC50 CYP2C9; human liver microsomes.
Sequence of CYP2C9 (P11712 whole entry): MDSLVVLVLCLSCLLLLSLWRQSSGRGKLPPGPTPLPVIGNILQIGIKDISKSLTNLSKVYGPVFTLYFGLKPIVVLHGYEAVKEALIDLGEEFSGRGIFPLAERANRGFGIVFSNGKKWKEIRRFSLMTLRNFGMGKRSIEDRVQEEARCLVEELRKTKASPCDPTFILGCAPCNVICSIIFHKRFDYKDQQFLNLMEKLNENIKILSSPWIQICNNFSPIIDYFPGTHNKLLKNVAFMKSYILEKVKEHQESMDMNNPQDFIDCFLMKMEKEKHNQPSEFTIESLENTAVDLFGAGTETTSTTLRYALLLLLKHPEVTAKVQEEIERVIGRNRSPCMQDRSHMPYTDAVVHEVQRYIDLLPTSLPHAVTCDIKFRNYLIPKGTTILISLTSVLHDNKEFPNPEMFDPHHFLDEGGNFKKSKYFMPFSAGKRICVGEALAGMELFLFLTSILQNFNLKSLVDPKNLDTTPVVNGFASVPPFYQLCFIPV
Setting [12] is: 2 mg/kg (po. or i.v) or 5 mg/kg (po.) every two days for 30 days.
Setting [13] is: 5 mg/kg oral every other day for 30 days.

Regarding `COc1ccc(-c2cc(Nc3ccnc(N4CCOCC4)n3)on2)cc1` [Compound 5], in series [1] (JIMT-1 cells, read-out: IC50), the IC50 stood at 120 nM. For the same compound, the IC50 in series [1] (cultured cells, in-house screening on JIMT-1, read-out: IC50, suppresses cell growth) came out at 190 nM. Besides, in series [2], the “average colony number compared with other two inhibitors at the same doses” value is listed as “significantly lower”. In addition, the “fraction of apoptotic cells (Annexin V/PI)” value in series [3] was 45.6%. Besides, the “share of NCI-60 cell lines with less than 1 μM GI50 value” in series [4] is reported as about 90%. For the same compound, the GI50 in series [4] (Homo sapiens, read-out: 50% growth inhibition (GI50) value, almost all cell lines) was under 1000 nM. Besides, in series [5] (setting [12]), the “body weight of mice” value is “did not have any negative effect on the body weight” and the “tumor growth rate compared with control group” value is listed as “decreased”. Also, in series [5] (setting [13]), the “body weight of mice” value was “no major effect on the body weight” and the “tumor growth as compared to SPL-B” value is “significant reduction of tumor growth”. In series [5] (25 mg/kg, po., 23 days), the mice weight result was “did not affect the mice weight”, the “tumor growth compared to vehicle-treated mice” value is “very significant reduction of tumor growth” and the “tumor weights compared to vehicle group” value is on record as “significantly lower”. Further, in [6], the tolerability entry was “well tolerated” and the tumor growth inhibition result is reported as “significant tumor growth inhibition”. The compound also showed an increased lifespan in [6] (compared to vehicle) of 57.1%. This compound also returned a median survival in [6] (vehicle 14 days) of 22 days. In addition, the logD in series [7] worked out at 2.3. Also, in series [8], the solubility result is on record as “low solubility”. Also, the “stability in human liver microsomes” value in series [9] is recorded as “low stability”. In addition, in [10], the “stability in mouse liver microsomes” value is “low stability”. For the same compound, the IC50 in series [11] was 2630 nM.
